In PMC5099944, “Design, synthesis and biological evaluation of hybrids of β-carboline and salicylic acid as potential anticancer and apoptosis inducing agents” (Scientific Reports, 2016):
Entries after “also recorded” stand apart in the source; their conditions may differ.

Legend:
SMMC-7721 cells [1] = experiment: Flow cytometry assay of cell apoptosis (FITC-Annexin V/PI); assay type: cell-based, human; conditions: 14 μM, 48 h
Description: To determine whether apoptosis is involved in the anti-proliferative effects of 8h, apoptosis assay was performed using SMMC-7721 cells. The cells were incubated with either vehicle alone, different concentrations of 8h (7.0 or 14 μM), or 14 μM 5-FU for 48 h, and then stained with FITC-Annexin V and propidium iodide (PI). The percentages of apoptotic SMMC-7721 cells were determined by flow cytometry analysis. In the vehicle group, the occurrence of SMMC-7721 cell apoptosis was minimal. […] Low concentration of 8h (7.0 μM) induced 46% SMMC-7721 cell apoptosis, while the higher dose (14 μM) of 8h induced 63% SMMC-7721 cell apoptosis.
Figure 4 Compound 8h induced SMMC-7721 cell apoptosis in vitro. SMMC-7721 cells were incubated with the indicated concentrations of 8h and 14 μM 5-FU for 48 h, and the cells were stained with FITC-Annexin V and PI, followed by flow cytometry analysis. (A) Flow cytometry analysis. (B) Quantitative analysis of apoptotic cells. Data are expressed as means ± SD of the percentages of apoptotic cells from three independent experiments. *P < 0.01 vs control.
SMMC-7721 cells were cultured overnight and incubated in triplicate with compound 8h (7.0 and 14 μM), 5-FU (14 μM), or vehicle for 48 h. The cells were harvested, and stained with FITC-Annexin V and PI (BioVision) at room temperature for 15 min. The percentage of apoptotic cells was determined by flow cytometry (Beckman Coulter) analysis.

Hep G2 cells = experiment: MTT assay, proliferation of Hep G2 cells; assay type: cell-based; conditions: Homo sapiens, HepG2, 48 h, read-out: In vitro cytotoxicity (IC50) Hep G2
Description: (§1) The in vitro antitumor activities of the synthesized compounds 7a-l and 8a-l against five human cancer cells were evaluated in MTT assays using 5-fluorouracil (5-FU) and harmine as positive controls. These cells are human hepatocellular carcinoma cells (SMMC-7721 and Hep G2), human colon cancer cell lines (HCT116), human bladder carcinoma cells (EJ), and human lung cancer cells (H460).
(§2) Hepatocellular carcinoma cells (SMMC-7721 and Hep G2), Human colon cancer cell lines (HCT116), human bladder carcinoma cells (EJ) or human lung cancer cells (H460) at 10^4 cells per well were cultured in 10% FBS DMEM in 96-well flat-bottom microplates overnight. The cells were incubated in triplicate with, or without, different concentrations of each test compound for 48 h. During the last 4 h incubation, 30 μL of tetrazolium dye (MTT) solution (5 mg mL^−1) was added to each well. The resulting MTT-formazan crystals were dissolved in 150 μL DMSO, and absorbance was measured spectrophotometrically at 570 nm using an ELISA plate reader. The inhibition induced by each test compound at the indicated concentrations was expressed as a percentage. The concentration required for 50% inhibition (IC50) was calculated using the software (GraphPadPrism Version 4.03).

HCT116 cells = experiment: MTT assay, proliferation of HCT116 cells; assay type: cell-based; conditions: Homo sapiens, HCT-116, 48 h, read-out: In vitro cytotoxicity (IC50) HCT116
Description: as §1, §2

SMMC-7721 cells [2] = experiment: MTT assay, proliferation of SMMC-7721 cells; assay type: cell-based, human; conditions: Homo sapiens; for IC50: SMMC-7721, 48 h, read-out: In vitro cytotoxicity (IC50) SMMC-7721, MTT assay, 48 h, SMMC-7721 human hepatocellular carcinoma cells
Description: as §1, §2

[3] = test system: human cancer cells (SMMC-7721, Hep G2, HCT116, EJ, H460); experiment: MTT assay, summary statements across several human cancer cell lines; assay type: cell-based; conditions: Homo sapiens; SMMC-7721, Hep G2, HCT116; MTT; read-out: IC50 values for liver and colon cancer cells growth (range over cell lines)
Description: as §1, §2

LO2 cells = experiment: MTT assay, proliferation of normal liver LO2 cells; assay type: cell-based, human; conditions: 25 μM, 48 h, MTT assay
Description: Given the strong growth inhibitory activity of 8h in vitro, it was profiled for antitumor selectivity by examining its inhibitory effects on the growth of SMMC-7721 cells and LO2 cells (human hepatocellular normal cells).
Figure 3 (A) Inhibitory effects of 8h on the proliferation of SMMC-7721 and LO2 cells. Cells were incubated with the indicated concentrations of 8h for 48 h. Cell proliferation was assessed using the MTT assay. Data are means ± SD of the inhibition (%) from three independent experiments. (B) Inhibitory effects of 5h, 8h, and SA or the vehicle control against SMMC-7721 and LO2 cells. SMMC-7721 and LO2 cells were incubated with the indicated compounds at 25 μM for 48 h, and cell proliferation was assessed by the MTT assay. Data are means ± SD of the inhibition (%) from three independent experiments. *P < 0.01 versus control of SMMC-7721, ^#P < 0.01 inhibitory effects of 8h in SMMC-7721 versus LO2 cells.
as §2

**Q.** Which results are given for `O=c1[nH]cc(F)c(=O)[nH]1` [5-FU, 5-fluorouracil, reference compound]?
**A.** SMMC-7721 cell apoptosis (percentage of apoptotic cells) (SMMC-7721 cells [1]): 22%; IC50 (Hep G2 cells): 35.2 µM; IC50 (HCT116 cells): 19.6 µM; IC50 (SMMC-7721 cells [2]): 28.7 µM; IC50 [3]: 19.6 to 35.2 µM

**Q.** What does the source list for `Cc1nc(C(=O)NCCCCCN)cc2c1[nH]c1ccccc12` [5h, N-(5-Aminopentyl)-1-methyl-9H-pyrido[3,4-b]indole-3-carboxamide]?
**A.** Inhibitory effect on LO2 cells (LO2 cells): a similar effect was seen in the non-tumor LO2 cells; also recorded: high toxicities; IC50 (SMMC-7721 cells [2]): 27.2 ± 3.4 µM; inhibition at 25 µM (SMMC-7721 cells [2]; SMMC-7721, 25 μM, 48 h, MTT assay, read-out: Inhibition of SMMC-7721 cell proliferation): ~42%
